Results as given in patent US4889862A, “Freeze-dried pharmaceutical compositions of phenylquinoline carboxylic acids” (E. I. Du Pont de Nemours and Company, priority 1987, dated 1989).

How the values were obtained:
L1210 leukemia = assay: In vivo antitumor activity against L1210 leukemia in mice (survival time); design: species or system CDF1 mice; L1210 murine leukemia; settings: for Survival Time: % T/C (mean day of death treated/control × 100): intraperitoneal
Protocol: Then distilled water (4 ml) was added to the above to make 50 mg/kg solution. Serial two-fold dilutions were made in distilled water from the 50 mg/kg solution for the remaining three concentrations. An unformulated control solution was prepared by dissolving the title compound in distilled water and was used while it remained clear.
The test was carried out as follows. On day 0, CDF1 mice were injected with 1×10^5 L1210 murine leukemia cells intraperitoneally. On day 1 formulated and unformulated title compound were injected intraperitoneally and the injections continued, once daily through day 9. Mice were observed until death.

in vivo = assay: in vivo
Protocol: A comparative test was performed on the title compound to evaluate possible lethality differences between compositions described herein and compositions prepared by dissolving in water. […] Following compound administration, mortality was evaluated twice daily for 14 days.

Structure (SMILES): Cc1c(-c2ccc(-c3ccccc3F)cc2)nc2ccc(F)cc2c1C(=O)[O-].[Na+]
- Survival Time: % T/C (mean day of death treated/control × 100) (L1210 leukemia; 6.25 mg/kg/day × 9 days): 156%
- Survival Time: % T/C (mean day of death treated/control × 100) (L1210 leukemia; 12.5 mg/kg/day × 9 days): 167%
- Survival Time: % T/C (mean day of death treated/control × 100) (L1210 leukemia; 25 mg/kg/day × 9 days): 169%
- Survival Time: % T/C (mean day of death treated/control × 100) (L1210 leukemia; 50 mg/kg/day × 9 days): 89%
- effect of sodium cholate and glycine on antitumor activity (L1210 leukemia; formulated vs unformulated): no effect on the antitumor activity
- LD50 at 336 h (in vivo; mouse, in vivo): 156 mg/kg
- Slope of the response curve (in vivo; vehicle D.I. H2O, pH = 8.5, single parenteral dose, female mice): 1.18
